Patent US20130137102A1, “Methods and kits for modulating tumor invasiveness and metastatic potential” (TUFTS MEDICAL CENTER, INC., priority 2010, published 2013)
Where a SMILES comes first, the peptide text is derived from it. [ ]: non-standard residue; d: D form. Nle = CCCC[C@H](N)C(=O)O

Key:
[1] = test system: Tiam1; experiment: In vitro Tiam1 cleavage assay; format: biochemical, human; settings: immunoblot
Description: HEK293T cells were transiently transfected with full-length Tiam1 cDNA as previously described (Buchsbaum et al., 2002). Forty-eight hours after transfection, cells were washed once with PBS and lysed in SP buffer as described above. Lysates were cleared of unbroken cells and debris by centrifugation at 10,000×g for 10 minutes. Aliquots of cleared lysates were reserved for immunoblots; the remainder were incubated with protein A-Sepharose beads (Pharmacia) and anti-Tiam1 antibody (diluted according to the manufacturer's instructions) or equal amounts of polyclonal rabbit IgG (Santa Cruz) for 2 h at 4° C. with constant agitation. Immunoprecipitates were washed twice with ice-cold SP buffer and once with Reaction Buffer (20 mM Tris-HCl, pH 7.5, 10 mM DTT, 6 mM CaCl2) in the presence of protease inhibitors (1 mM PMSF and 1.7 μg/ml aprotinin) prior to the cleavage reaction.
Pre-senescent cells were maintained in culture as described above. Senescence was induced with 800 uM H2O2 as described above, and confirmed by SA-β gal staining. Pre-senescent and senescent RMFs were washed with cold PBS, pelleted, and resuspended in extraction buffer (10 mM HEPES pH 7.0, 2 mM MgCl2, 50 mM NaCl, 1 mM DTT) containing inhibitors (17 μg/ml aprotinin, 10 μg/ml leupepsin, 100 μM NaV, 3.3 mM PMSF). Cells were lysed by freeze-thaw cycles in ethanol-liquid nitrogen/37° C. water bath. Extracts were centrifuged at 10,000 g for 15 min at 4° C., and resulting supernatants were used as the cytosolic fraction. Protein concentration was determined by BCA protein assay (Bio-Rad).
Immunoprecipitated proteins were incubated with extracted lysates from pre-senescent or senescent cells in Reaction Buffer for 2 hours at 37° C. with constant agitation. […] Samples were resolved by SDS-PAGE and immunoblotting as described.

[2] = test system: T-cell lymphoma invasion and metastasis-inducing protein 1 (Tiam1)
[3] = test system: RMF cells; experiment: Senescence induction and SA-β-Gal staining; format: cell-based, human; settings: repeated 3-5 days later, seven days after induction
Description: After treatment, cells were rinsed twice with phosphate-buffered saline (PBS) and left to recover in culture medium. […] For each treatment, senescence induction was repeated 3-5 days later to prevent recovery and cell cycle re-entry. Cells were sub-cultured for at least 7 days and senescence induction was confirmed by SA-β-gal staining.
SA-β-Gal staining was conducted as described previously [Dimri, G P, et al., 1995, Proc Natl Acad Sci USA 92:9363-7]. Briefly, cells were washed twice in PBS and fixed 5 minutes in 2% formaldehyde/0.2% glutaraldehyde, washed again, and incubated at 37° C. overnight with fresh senescence-associated β-Gal (SA-β-Gal) stain solution: 1 mg 5-bromo-4-chloro-3-indolyl-β-D-galactoside (X-Gal) per ml (stock=20 mg in dimethylformamide per ml)/40 mM citric acid/sodium phosphate, pH 6.0/5 mM potassium ferrocyanide/5 mM potassium ferricyanide/150 mM NaCl/2 mM MgCl2. Cells with positive staining were observed and counted under a light microscope (Nikon, Eclipse TS100).

[4] = test system: HMECs; experiment: Spheroid co-culture in Matrigel with senescent RMFs; format: cell-based, human; settings: RMFs exposed to the agent before co-culture; preliminary examples
Description: (§1) As described previously [Xu K, et al., 2010, Oncogene 29:6533-42], Matrigel (BD Biosciences) was diluted in 1:1 ratio with ice-cold HMEC medium, and 50 μl of the mixture was placed mid-well in a 24-well plate. After incubating for 5 min in 37° C., an additional 250 μl of Matrigel:medium mixture was added into the well and incubated for another 30 min. A 1:1 mixture of HMEC and RMF cells (0.5×10^5 cells each) in 0.5 ml of HMEC medium was gently dropped onto the top of the solidified gel. Cells were cultured for two weeks and medium was changed every two or three days. Spheroid formation and projection growth were monitored daily under light microscopy. Images were obtained on a Diaphot Software Version 4.1 (Diagnostic Instruments Inc).
as §1, with “and 50 ul of the” for “and 50 μl of the”, “another 30 min A 1:1” for “another 30 min. A 1:1”, “light microscopy. […]” for “light microscopy. Images were obtained on a Diaphot Software Version 4.1 (Diagnostic Instruments Inc).”

Sequence of T-cell lymphoma invasion and metastasis-inducing protein 1 (Tiam1) (chain, as listed by the source): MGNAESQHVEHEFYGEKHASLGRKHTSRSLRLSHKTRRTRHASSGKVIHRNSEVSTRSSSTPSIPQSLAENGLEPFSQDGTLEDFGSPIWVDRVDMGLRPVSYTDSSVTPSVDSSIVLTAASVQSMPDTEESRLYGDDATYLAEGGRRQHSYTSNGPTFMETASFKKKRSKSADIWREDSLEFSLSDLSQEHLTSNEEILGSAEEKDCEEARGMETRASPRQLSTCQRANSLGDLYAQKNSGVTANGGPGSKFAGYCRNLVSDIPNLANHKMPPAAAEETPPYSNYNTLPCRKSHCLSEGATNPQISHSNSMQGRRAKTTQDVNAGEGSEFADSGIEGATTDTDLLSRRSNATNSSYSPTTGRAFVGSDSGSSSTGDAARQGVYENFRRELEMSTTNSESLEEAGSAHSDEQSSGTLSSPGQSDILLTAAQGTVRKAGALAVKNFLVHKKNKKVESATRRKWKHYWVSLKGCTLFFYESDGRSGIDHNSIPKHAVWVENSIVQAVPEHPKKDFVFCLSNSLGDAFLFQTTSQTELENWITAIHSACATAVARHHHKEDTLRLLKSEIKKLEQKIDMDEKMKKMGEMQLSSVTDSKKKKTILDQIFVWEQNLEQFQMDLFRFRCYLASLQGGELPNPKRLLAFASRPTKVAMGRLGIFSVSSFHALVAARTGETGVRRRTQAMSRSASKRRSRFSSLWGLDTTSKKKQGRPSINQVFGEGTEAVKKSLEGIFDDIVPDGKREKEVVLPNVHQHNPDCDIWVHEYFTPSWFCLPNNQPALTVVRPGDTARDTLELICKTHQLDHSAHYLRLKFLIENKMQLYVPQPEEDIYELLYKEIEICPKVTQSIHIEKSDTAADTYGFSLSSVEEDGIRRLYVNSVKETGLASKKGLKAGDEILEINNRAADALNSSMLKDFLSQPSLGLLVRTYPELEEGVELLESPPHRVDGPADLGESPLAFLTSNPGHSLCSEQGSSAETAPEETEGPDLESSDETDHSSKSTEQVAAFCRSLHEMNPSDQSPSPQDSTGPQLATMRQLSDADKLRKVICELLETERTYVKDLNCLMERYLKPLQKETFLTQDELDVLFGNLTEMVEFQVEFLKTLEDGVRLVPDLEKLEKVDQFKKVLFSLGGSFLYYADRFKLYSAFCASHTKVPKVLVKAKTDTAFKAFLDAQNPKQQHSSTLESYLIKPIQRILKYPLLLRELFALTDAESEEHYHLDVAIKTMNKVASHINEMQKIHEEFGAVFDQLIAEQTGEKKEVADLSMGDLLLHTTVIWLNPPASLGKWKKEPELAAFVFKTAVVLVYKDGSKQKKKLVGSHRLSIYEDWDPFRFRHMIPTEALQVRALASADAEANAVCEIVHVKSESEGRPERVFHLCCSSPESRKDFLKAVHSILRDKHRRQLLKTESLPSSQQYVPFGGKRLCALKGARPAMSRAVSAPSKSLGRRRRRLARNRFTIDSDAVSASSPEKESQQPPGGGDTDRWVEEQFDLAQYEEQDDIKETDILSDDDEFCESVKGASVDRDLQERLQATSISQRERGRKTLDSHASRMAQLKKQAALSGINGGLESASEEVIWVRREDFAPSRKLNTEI

With CCCC[C@@H](C=O)NC(=O)[C@H](CC(C)C)NC(=O)[C@H](CC(C)C)NC(C)=O [ALLN] (Ac-Leu-Leu-[Nle]-aldehyde) the “degradation of immobilized Tiam1 induced by senescent lysates” value ([1]; lysates pre-incubated on ice 30 minutes with 50 μM ALLN) was “significantly inhibited degradation of the immobilized Tiam1”.

O=C(O)CN(CCN(CC(=O)O)CC(=O)O)CC(=O)O [EDTA] was tested, and the “degradation of immobilized Tiam1 induced by senescent lysates” value ([1]; lysates pre-incubated on ice 30 minutes with 1 mM EDTA) was “significantly inhibited degradation of the immobilized Tiam1”.

calpain proteases was tested, and the “degradation of immunoprecipitated Tiam1 (in vitro Tiam1 cleavage assay, immunoblot)” value [2] was “Pre-incubation of cell lysates with either the calpain inhibitor ALLN or the calcium-chelator EDTA significantly inhibited degradation of the immobilized Tiam1 induced by senescent lysates”.

With OO [H2O2, hydrogen peroxide] the “induction of senescence (morphology, SA β-gal staining)” value ([3]; 800 μmol/L H2O2 for 2 hours) was “had taken on a morphologic appearance characteristic of senescence” and the “HMEC invasiveness into matrix on co-culture with RMFs rendered senescent by the agent” value [4] was “increased invasiveness into the surrounding matrix”.

In the case of bleomycin, the “induction of senescence (morphology, SA β-gal staining)” value ([3]; 50 μg/ml bleomycin for 24 hours) is reported as “had taken on a morphologic appearance characteristic of senescence” and the “HMEC invasiveness into matrix on co-culture with RMFs rendered senescent by the agent” value [4] is reported as “increased invasiveness into the surrounding matrix”.

For CC(C)C[C@H](NC(=O)[C@H](Cc1ccccc1)NC(=O)c1cnccn1)B(O)O [bortezomib], the “degradation of immobilized Tiam1 by senescent lysates” value ([1]; lysates pre-incubated with 5 nM bortezomib at 37° C. for 24 hours) was “did not prevent degradation of immobilized Tiam1”.
